According to patent publication US20260285850A1, “SUBSTITUTED OXAZOLIDINONES AND IMIDAZOLINONES AS HERBICIDES” (FMC CORPORATION, priority 2023, published 2026):

Tests used:
Type in all cases: in vivo
[1] = test system: blackgrass (Alopecurus myosuroides); assay: Test A preemergence soil spray, visual injury rating 0-100; details: 10 days, 0 = no effect, 100 = complete control
How it was run: (§1)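 Grow plants in loam soil blended with sand. Apply formulated compound (non-phytotoxic solvent, surfactant) as a directed soil spray before emergence, or to plants at the one- to two-leaf stage after emergence. Hold in greenhouse 10 days, then rate injury visually versus untreated controls on a 0-100 scale.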

[2] = test system: wheat (Triticum aestivum); assay: as above; details: 10 days, 0 = no effect, 100 = complete control
How it was run: as §1

[3] = test system: palmer (palmer amaranth, palmer pigweed, Amaranthus palmeri); assay: as above; details: 10 days, 0 = no effect, 100 = complete control
How it was run: as §1

[4] = test system: oat, wild (wild oat, Avena fatua); assay: as above; details: 10 days, 0 = no effect, 100 = complete control
How it was run: as §1

[5] = test system: ragweed (common ragweed, Ambrosia artemisiifolia); assay: as above; details: 10 days, 0 = no effect, 100 = complete control
How it was run: as §1

[6] = test system: ryegrass, Italian (italian ryegrass, Lolium multiflorum); assay: as above; details: 10 days, 0 = no effect, 100 = complete control
How it was run: as §1

[7] = test system: soybean (Glycine max); assay: as above; details: 10 days, 0 = no effect, 100 = complete control
How it was run: as §1

[8] = test system: kochia (Bassia scoparia); assay: as above; details: 10 days, 0 = no effect, 100 = complete control
How it was run: as §1

[9] = test system: corn (Zea mays); assay: as above; details: 10 days, 0 = no effect, 100 = complete control
How it was run: as §1

[10] = test system: barnyardgrass (Echinochloa crus-galli); assay: as above; details: 10 days, 0 = no effect, 100 = complete control
How it was run: as §1

[11] = test system: sedge, umbrella (small-flower umbrella sedge, Cyperus difformis); assay: Test B flooded paddy test, visual plant response rating 0-100; details: 250 g ai/ha, Flood, applied to paddy water, evaluated after 13 days
How it was run: (§2)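 Compounds applied to standing paddy water (3 cm above soil, maintained for the test duration) on 2-leaf-stage plants; visual rating vs controls at 13 days, greenhouse.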

[12] = test system: barnyardgrass (Echinochloa crusgalli); assay: as above; details: 250 g ai/ha, Flood, applied to paddy water, evaluated after 13 days
How it was run: as §2

[13] = test system: rice (Oryza sativa); assay: as above; details: 250 g ai/ha, Flood, applied to paddy water, evaluated after 13 days
How it was run: as §2

[14] = test system: ducksalad (Heteranthera limosa); assay: as above; details: 250 g ai/ha, Flood, applied to paddy water, evaluated after 13 days
How it was run: as §2

[15] = test system: blackgrass (Alopecurus myosuroides); assay: Test A postemergence application, visual injury rating 0-100; details: Postemergence
How it was run: as §1

[16] = test system: galium (catchweed bedstraw, Galium aparine); assay: as above; details: Postemergence
How it was run: as §1

[17] = test system: wheat (Triticum aestivum); assay: as above; details: Postemergence
How it was run: as §1

[18] = test system: palmer (palmer amaranth, palmer pigweed, Amaranthus palmeri); assay: as above; details: Postemergence
How it was run: as §1

[19] = test system: oat, wild (wild oat, Avena fatua); assay: as above; details: Postemergence
How it was run: as §1

[20] = test system: horseweed (Erigeron canadensis); assay: as above; details: Postemergence
How it was run: as §1

[21] = test system: ragweed (common ragweed, Ambrosia artemisiifolia); assay: as above; details: Postemergence
How it was run: as §1

[22] = test system: ryegrass, Italian (italian ryegrass, Lolium multiflorum); assay: as above; details: Postemergence
How it was run: as §1

[23] = test system: soybean (Glycine max); assay: as above; details: Postemergence
How it was run: as §1

[24] = test system: kochia (Bassia scoparia); assay: as above; details: Postemergence
How it was run: as §1

[25] = test system: corn (Zea mays); assay: as above; details: Postemergence
How it was run: as §1

[26] = test system: barnyardgrass (Echinochloa crus-galli); assay: as above; details: Postemergence
How it was run: as §1

[27] = 31 g ai/ha, greenhouse 10 days, 0 no effect, 100 complete control
[28] = 125 g ai/ha, 10 days, 0 is no effect, 100 is complete control

Compound: CSCCOC(=O)C1C=CC(NC(=O)C2(C)CN(c3cc(Cl)cc(Cl)c3)C(=O)O2)C1 (stereo not drawn) [Compound 69]
- Blackgrass plant response rating (0-100) ([1]; 31 g ai/ha): 40
- Blackgrass plant response rating (0 to 100 scale) ([1]; 125 g ai/ha): 60
- Wheat plant response rating (0-100) ([2]; 31 g ai/ha): 30
- Wheat plant response rating (0 to 100 scale) ([2]; 125 g ai/ha): 70
- Amaranth, Palmer plant response rating (0-100) ([3]; 31 g ai/ha): 90
- Amaranth, Palmer plant response rating (0 to 100 scale) ([3]; 125 g ai/ha): 90
- Oat, Wild plant response rating (0-100) ([4]; 31 g ai/ha): 0
- Oat, Wild plant response rating (0 to 100 scale) ([4]; 125 g ai/ha): 60
- Ragweed plant response rating (0-100) ([5]; 31 g ai/ha): 0
- Ragweed plant response rating (0 to 100 scale) ([5]; 125 g ai/ha): 20
- Ryegrass, Italian plant response rating (0-100) ([6]; 31 g ai/ha): 30
- Ryegrass, Italian plant response rating (0 to 100 scale) ([6]; 125 g ai/ha): 80
- Soybean plant response rating (0-100) ([7]; 31 g ai/ha): 20
- Soybean plant response rating (0 to 100 scale) ([7]; 125 g ai/ha): 50
- Kochia plant response rating (0-100) ([8]; 31 g ai/ha): 40
- Kochia plant response rating (0 to 100 scale) ([8]; 125 g ai/ha): 90
- Corn plant response rating (0-100) ([9]; 31 g ai/ha): 0
- Corn plant response rating (0 to 100 scale) ([9]; 125 g ai/ha): 60
- Barnyardgrass plant response rating (0-100) ([10]; 31 g ai/ha): 60
- Barnyardgrass plant response rating (0 to 100 scale) ([10]; 125 g ai/ha): 90
- Plant response rating, Sedge, Umbrella (0 to 100 scale, 0 is no effect and 100 is complete control) [11]: 95
- Plant response rating, Barnyardgrass (0 to 100 scale, 0 is no effect and 100 is complete control) [12]: 85
- Plant response rating, Rice (0 to 100 scale, 0 is no effect and 100 is complete control) [13]: 50
- Plant response rating, Ducksalad (0 to 100 scale, 0 is no effect and 100 is complete control) [14]: 60
- Blackgrass plant response rating (0 to 100 scale) [15, 27]: 90
- Blackgrass plant response rating (0 to 100 scale) [15, 28]: 90
- Galium plant response rating (0 to 100 scale) [16, 27]: 80
- Galium plant response rating (0 to 100 scale) [16, 28]: 80
- Wheat plant response rating (0 to 100 scale) [17, 27]: 90
- Wheat plant response rating (0 to 100 scale) [17, 28]: 90
- Amaranth, Palmer / Pigweed, Palmer plant response rating (0 to 100 scale) [18, 27]: 90
- Amaranth, Palmer / Pigweed, Palmer plant response rating (0 to 100 scale) [18, 28]: 90
- Oat, Wild plant response rating (0 to 100 scale) [19, 27]: 90
- Oat, Wild plant response rating (0 to 100 scale) [19, 28]: 90
- Horseweed plant response rating (0 to 100 scale) [20, 27]: 70
- Horseweed plant response rating (0 to 100 scale) [20, 28]: 80
- Ragweed plant response rating (0 to 100 scale) [21, 27]: 50
- Ragweed plant response rating (0 to 100 scale) [21, 28]: 70
- Ryegrass, Italian plant response rating (0 to 100 scale) [22, 27]: 70
- Ryegrass, Italian plant response rating (0 to 100 scale) [22, 28]: 70
- Soybean plant response rating (0 to 100 scale) [23, 27]: 60
- Soybean plant response rating (0 to 100 scale) [23, 28]: 90
- Kochia plant response rating (0 to 100 scale) [24, 27]: 80
- Kochia plant response rating (0 to 100 scale) [24, 28]: 80
- Corn plant response rating (0 to 100 scale) [25, 27]: 100
- Corn plant response rating (0 to 100 scale) [25, 28]: 100
- Barnyardgrass plant response rating (0 to 100 scale) [26, 27]: 90
- Barnyardgrass plant response rating (0 to 100 scale) [26, 28]: 90
